Experimental data taken from PubChem BioAssay AID493240 (Broad Institute, 2011).

Test system: SK-MEL-5 viability, ATP luminescence (CellTiter-Glo), 24 h
Assay: cytotoxicity in parental SK-MEL-5 melanoma cells – cell-based, CellTiter-Glo, cherry-picked, set 3, orthogonal assay for MITF inhibitor project, dose response (AID 493240)

SMILES	AC50
CCN(CC)CCCNC1=C(Cl)C(=O)c2ccccc2C1=O	5.82 µM
N=c1n(CCN2CCCC2)c2ccccc2n1CC(O)c1ccc(Cl)c(Cl)c1 (stereo unspecified)	16.3 µM
O=C1C=C(N(CCO)Cc2ccccc2)c2ccccc2C1=O	13.3 µM
N=c1n(CC(=O)c2ccc(Br)s2)c2ccccc2n1Cc1ccccc1	20 µM
CC(=O)N(\C=C/C=C/C=C1\Sc2ccccc2C1=O)c1ccccc1	21.2 µM
N=c1n(CC(=O)c2ccc([N+](=O)[O-])cc2)c2ccccc2n1Cc1ccc(Cl)cc1	16.9 µM
CCCCCCCNC(=O)C1(CC2CC(c3ccc(Cl)cc3)=NO2)CCNCC1 (stereo unspecified)	18.2 µM
COC(=O)C1=C(C)N(Cc2ccccc2)C(=NCC(C)C)N[C@H]1c1cccc(C(F)(F)F)c1	17.4 µM
CCOC(=O)CCc1ccc(NC(=O)/C=C/c2ccc([N+](=O)[O-])o2)cc1	28.4 µM
CC(=O)N1CCc2c(sc(NC(=O)c3ccc([N+](=O)[O-])o3)c2C#N)C1	17.2 µM
CN(C)S(=O)(=O)c1ccc(-c2csc(N/N=C/c3ccc(O)cc3)n2)cc1	17.5 µM
O=C(Nc1ccc(Nc2ccncc2)cc1)c1ccc([N+](=O)[O-])cc1	34.3 µM
CCN(CC)CCn1nc2c3c(cccc3c1=O)-c1ccccc1-2	20.3 µM
CS(=O)(=O)c1ncc(Cl)c(C(=O)Nc2ccc3ccccc3c2)n1	18.3 µM
COc1ccc(C(CCNC(C)c2ccccc2)c2ccc(F)cc2)cc1 (stereo unspecified)	17.6 µM
COc1ccc(C(=O)/C=C/C(=O)N(CC(=O)NC2CCCCC2)Cc2ccccc2OC)c(O)c1	9.67 µM
OC(CNCC(c1ccc(Cl)cc1Cl)c1c[nH]c2ccccc12)c1ccccc1 (stereo unspecified)	16.8 µM
Cc1ccccc1OCc1n(CC(=O)OC2CC(C)CCC2C(C)C)c2ccccc2[n+]1C (stereo unspecified)	15.8 µM
CC1CCC(C(C)C)C(OC(=O)Cn2c(-c3ccc(Cl)cc3)[n+](C)c3ccccc32)C1 (stereo unspecified)	10.4 µM
CC1(C)CC(NC(=O)c2ccc(Cl)c(S(=O)(=O)N(Cc3ccccc3)c3ccccc3)c2)CC(C)(C)N1	23.3 µM
Cc1ccccc1NC(=O)Cc1nc(COC(=O)c2ccc(S(C)(=O)=O)c([N+](=O)[O-])c2)cs1	27.3 µM
CC[n+]1c(-c2ccccc2)c2cc(N)ccc2c2ccc(N)cc21	15 µM

SMILES	AC50
CCN1CCN(c2ccc(Nc3ccnc4ccccc34)cc2)CC1	23.8 µM
CCSCCc1nnc(NC(=O)Nc2cccc(C(F)(F)F)c2)s1	16.6 µM
Cc1ccccc1-c1nc(-c2ccccn2)no1	20.7 µM
CCCC(=O)N1CCN(c2ccc(NC(=O)c3ccc([N+](=O)[O-])o3)cc2)CC1	24.2 µM
CCC(=O)N1CCN(c2ccc(NC(=O)c3ccc([N+](=O)[O-])o3)cc2Cl)CC1	24.8 µM
O=C1C(Nc2ccccc2)=C(N2CCCCC2)C(=O)c2ccccc21	12.7 µM
Cc1cc(C)n(-c2ccc(C(=O)Nc3ccc(C)c(S(=O)(=O)N4CCOCC4)c3)cc2)n1	28.1 µM
COc1cc(/C=C/C(=O)c2ccc3c(c2)OCCO3)cc(Br)c1OCC(=O)N(C)C	18 µM
COC1=C(Nc2ccccc2)C(=O)c2ccccc2C1=O	5.11 µM
C#CC(=O)N(c1ccc(OC)c(OC)c1)C(C(=O)NC1CCCC1)c1cccs1 (stereo unspecified)	22.1 µM
O=C(Nc1ccccc1)NN(C(=O)CCl)c1ccccc1	28.7 µM
CC1=C(CC(=O)c2ccccc2)C(=O)c2ccccc2C1=O	7.67 µM
O=C(CCl)Nc1ccc(Sc2ccc(NC(=O)CCl)cc2)cc1	23.6 µM
CS(=O)(=O)c1nc(-c2ccc(F)cc2)cc(C(F)(F)F)n1	20.3 µM
Oc1c(CN2CCCCC2)cc(COCc2ccccc2)c2cccnc12	16.9 µM
O=C(N/N=C/c1ccc([N+](=O)[O-])s1)C(O)c1ccccc1 (stereo unspecified)	35.1 µM
Cc1cccc(NC2=C(NC(=O)c3ccccc3)C(=O)c3ccccc3C2=O)c1	19.7 µM
Cc1ccc(-n2cc(CNCCCn3ccnc3C)c(-c3ccc(F)cc3)n2)cc1	17.6 µM
COc1ccc(C(=O)/C=C/C(=O)N(CC(=O)NC2CCCCC2)Cc2ccc(F)cc2)c(O)c1	12.8 µM
O=C(N/N=C/c1ccc(F)cc1)c1c(O)c2ccccc2[nH]c1=O	26.9 µM
CCN(CC)CCNC(=O)C1CCN(S(=O)(=O)c2c(C)noc2/C=C/c2ccccc2F)CC1	28.8 µM
O=C(CNc1cccc2ccccc12)N/N=C/c1ccc([N+](=O)[O-])o1	19.9 µM

SMILES	AC50
CC1CCC(C(C)C)C(OC(=O)Cn2c(-c3ccccc3)[n+](C)c3ccccc32)C1 (stereo unspecified)	5.45 µM
CN1CCC(N(C)C(=O)/C=C/c2cn(-c3ccccc3)nc2-c2cccs2)CC1	20.1 µM
O=C(COc1ccc(Cl)cc1Cl)Nc1ccccn1	19.6 µM
CCCCC[n+]1ccn(C2=C([O-])c3ccccc3C(=O)/C2=N\S(=O)(=O)c2ccccc2)c1	15.5 µM
Cc1cc(C)c2sc(N(CCCN(C)C)C(=O)COc3ccc(Cl)cc3)nc2c1	24.7 µM
COc1ccc(-c2c[n+](CC(=O)OC3CC(C)CCC3C(C)C)c3n2CCC3)cc1 (stereo unspecified)	14.5 µM
C=CCn1c(C)cc(C2=NNC(=NCC)SC2)c1C	12.9 µM
COc1ccccc1NC(=O)c1nc(S(=O)(=O)Cc2ccccc2)ncc1Cl	29.4 µM
COc1ccc(S(=O)(=O)Nc2ccc(O)c3ccccc23)cc1	14.7 µM
Cc1ccc2[nH]c(=O)c(CN(CCCN(C)C)C(=O)Nc3cccc(Cl)c3)cc2c1	24.3 µM
Cc1c(C(=O)Nc2ccc(S(=O)(=O)N(C)C3CCN(C)CC3)cc2)oc2c(Cl)cccc12	29.4 µM
CN(C)CCNC(=O)/C(=C/c1ccc(-c2ccc(Cl)cc2Cl)o1)NC(=O)c1ccccc1	19.4 µM
CC(=O)Nc1ccc(S(=O)(=O)NC2=C(N3CCN(C)CC3)C(=O)c3ccccc3C2=O)cc1	22.8 µM
Nc1c(N(CCC2=CCCCC2)C(=O)COc2ccc([N+](=O)[O-])cc2)c(=O)[nH]c(=O)n1Cc1ccccc1	33.7 µM
COc1cccc2sc(N(CCCN(C)C)C(=O)C(c3ccccc3)c3ccccc3)nc12	18.3 µM
COc1cc(/C=N/N=C(N)N)ccc1OCc1ccc(Cl)cc1	18.8 µM
COc1ccc(Oc2cc(NC(=O)c3nn(C)cc3[N+](=O)[O-])cc([N+](=O)[O-])c2)cc1	30.4 µM
O=C(N/N=C/c1ccc([N+](=O)[O-])o1)c1ccc(O)cc1	16.7 µM
O=C(Nc1ccccn1)c1ccc(Br)s1	2.08 µM
CCOc1ccc(-n2c(-c3ccc(Br)cc3)c[n+]3c2CCCCC3)cc1	20.5 µM
Cc1ccc(C(=O)N/N=C\c2ccc([N+](=O)[O-])s2)cn1	33.9 µM
COC(=O)c1c(NC(=O)c2nc3ccccc3s2)sc2c1CC(C)(C)NC2(C)C	22.1 µM

SMILES	AC50
CC[n+]1c(/C=C/N(C)c2ccccc2)sc2ccc(Cl)cc21	19.8 µM
CCN1CCN(C2=C(NS(=O)(=O)c3ccc(C)cc3)C(=O)c3ccccc3C2=O)CC1	21.9 µM
CCc1ccc(NC2=CC(=O)C(=O)c3ccccc32)cc1	5.85 µM
Cc1ccccc1-c1nc(CN2CCC(C(=O)NCCCN3CCCC(C)C3)CC2)c(C)o1 (stereo unspecified)	28.9 µM
Cc1cc(C)c[n+](C2=C([O-])c3ccccc3C(=O)/C2=N\S(=O)(=O)c2cccs2)c1	15.4 µM
Cc1[nH]nc2nc(SCC(=O)NCCC3=CCCCC3)n(-c3ccc(Br)cc3)c(=N)c12	21.5 µM
N=c1n(Cc2ccc(Cl)cc2)c2ccccc2n1CC(O)COc1ccccc1 (stereo unspecified)	19.1 µM
CCN(CC)CCNC(=O)c1ccc(NC(=O)c2cccc(S(=O)(=O)N3c4ccccc4CC3C)c2)cc1 (stereo unspecified)	22.5 µM
COc1ccccc1CNCC(O)Cn1c2ccccc2c2ccccc21 (stereo unspecified)	19 µM
O=C(/C=C/Nc1ccccc1Br)c1ccccn1	21.9 µM
O=C(Nc1cccc(Cl)c1)Nc1cc(S(=O)(=O)N2CCCCC2)ccc1Cl	22.9 µM
CCN1CCN(CCCNC(=O)c2ccc3c(c2)NC(=O)/C(=C\c2cccc(C)c2)S3)CC1	20.3 µM
CCCCN1C=CC(=C2C(=O)c3ccccc3C2=O)C=C1	19.9 µM
Cc1ccc(NC(=O)c2ncn(CCCN[C@H](C)c3cccc4ccccc34)n2)cc1C	25.8 µM
Nc1c2c(=O)oc(-c3ccccc3)cc2nn1-c1ccccc1	2.49 µM
Cc1ccc2sc(N(CCCN(C)C)C(=O)c3ccc(S(=O)(=O)N(C)C4CCCCC4)cc3)nc2c1C	26.7 µM
c1ccc2cc3c(NCCN4CCOCC4)ccnc3cc2c1	3.68 µM
COc1ccccc1C(=O)Nc1nc(-c2ccc(S(=O)(=O)N3CCOCC3)cc2)cs1	20.8 µM
CCN1CCN(c2ccc(S(=O)(=O)N3CCCCC3)cc2NC(=O)/C=C/c2cccc(OC)c2OC)CC1	24.7 µM
O=C(CCl)Nc1ccc(-c2ccccc2)cc1	21.9 µM
Cc1ccc(Cn2c(=N)n(CC(=O)c3ccc([N+](=O)[O-])cc3)c3ccccc32)cc1	21.9 µM
O=C(C#Cc1ccccc1)c1cccc([N+](=O)[O-])c1	26.2 µM

SMILES	AC50
CCOC(=O)c1ccc(NC(=O)c2ccc(C)c(S(=O)(=O)N3CCOCC3)c2)cc1	17.5 µM
CCN1c2ccccc2NC2N=C(OC)C(c3ccccc3)C21 (stereo unspecified)	14 µM
CCn1c(/C=C/N(C)c2ccccc2)[n+](CC)c2ccc(Cl)cc21	13.9 µM
CCCCN(C)CC(O)Cn1cc(/C=C/C(=O)c2cccs2)c2ccccc21 (stereo unspecified)	18.8 µM
Cc1cc(/C=C2\Sc3ccccc3N2C)cc(C)[n+]1CC1CCCO1 (stereo unspecified)	10 µM
Cc1ccc(C(C)C)c(OCc2nn(CC(=O)c3ccc(OC(F)F)cc3)c3[n+]2CCCCC3)c1	20.2 µM
COc1cc(CNC2CCCC2)cc(Cl)c1OCc1ccccc1Cl	16.8 µM
COc1ccc2nc(C)cc(NCc3cccc(C(F)(F)F)c3)c2c1	27.9 µM
CC1CCCC(NCC(O)COC(c2ccc(F)cc2)c2ccc(F)cc2)C1C (stereo unspecified)	20.9 µM
COc1ccc(-n2cc(-c3ccc(C)cc3)[n+]3c2SCC3)cc1	19.9 µM
Cc1ccc(S(=O)(=O)N2CCCCC2)cc1NC(=O)Cn1ncc(Cl)c(Cl)c1=O	19.3 µM
Cc1ccc(C(=O)C[n+]2cc(-c3ccc(C)cc3)n3c2CCCCC3)cc1	14.4 µM
CCOC(=O)Cn1c(=NC(=O)c2ccc([N+](=O)[O-])s2)sc2ccccc21	6.03 µM
Cc1ccc(C(O)(c2ccc(C)c(C)c2)C2CN3CCC2CC3)cc1C (stereo unspecified)	17.1 µM
Nc1c(N(CCC2=CCCCC2)C(=O)COc2ccc(F)cc2)c(=O)[nH]c(=O)n1Cc1ccccc1	10.9 µM
CC(C)C1CC(CCNCc2ccc(N(C)C)cc2)(c2ccccc2)CCO1 (stereo unspecified)	21.9 µM
Cc1ccc(NC(=O)c2ccc([N+](=O)[O-])s2)cc1S(=O)(=O)N1CCOCC1	16.2 µM
CCOC(=O)c1c(NC(C)=O)sc2c(OCC(O)CNC(C)(C)C)c(Br)ccc12 (stereo unspecified)	19.1 µM
